SMILES strings stand for the structures. Values joined by “and” are separate entries in the source; they are usually repeats but may differ in a detail not shown here. Equal values may be shown once. Toxic doses and inconclusive results are not listed.

In the assay the test system is P388 leukemia ip, CD2F1 mice, survival T/C. Briefly: NCI In Vivo Anticancer Drug Screen. Data for tumor model P388 Leukemia (intraperitoneal) in CD2F1 (CDF1) mice. Particulars: endpoint: median survival time, higher = longer survival. In short, it runs like this: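 Mice carrying the transplanted tumor received test compound or vehicle. Survival was recorded in each group, and the value is the treated-group measurement divided by that of the vehicle-treated control group.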

Setting [1] is: dose: 50.0 mg/kg/injection, schedule: Q01DX005 (ip), vehicle: saline with Tween-80.
The mark [2] stands for this setting: dose: 100.0 mg/kg/injection, schedule: Q01DX005 (ip), vehicle: saline with Tween-80.
Where [3] appears, read: dose: 200.0 mg/kg/injection, schedule: Q01DX005 (ip), vehicle: saline with Tween-80.
The mark [4] stands for this setting: dose: 50.0 mg/kg/injection, schedule: Q01DX005 (ip), vehicle: Klucel (hydroxypropylcellulose) (HPC).
The mark [5] stands for this setting: dose: 100.0 mg/kg/injection, schedule: Q01DX005 (ip), vehicle: Klucel (hydroxypropylcellulose) (HPC).
Where [6] appears, read: dose: 200.0 mg/kg/injection, schedule: Q01DX005 (ip), vehicle: Klucel (hydroxypropylcellulose) (HPC).
[7] abbreviates: dose: 50.0 mg/kg/injection, schedule: Q01DX009 (ip), vehicle: saline with Tween-80.
The mark [8] stands for this setting: dose: 100.0 mg/kg/injection, schedule: Q01DX009 (ip), vehicle: saline with Tween-80.
Where [9] appears, read: dose: 200.0 mg/kg/injection, schedule: Q01DX009 (ip), vehicle: saline with Tween-80.
Where [10] appears, read: dose: 25.0 mg/kg/injection, schedule: Q01DX005 (ip), vehicle: Klucel (hydroxypropylcellulose) (HPC).
Setting [11] is: dose: 60.0 mg/kg/injection, schedule: Q01DX005 (ip), vehicle: saline with Tween-80.
Setting [12] is: dose: 120.0 mg/kg/injection, schedule: Q01DX005 (ip), vehicle: saline with Tween-80.
[13] abbreviates: dose: 240.0 mg/kg/injection, schedule: Q01DX005 (ip), vehicle: saline with Tween-80.
[14] abbreviates: dose: 60.0 mg/kg/injection, schedule: Q01DX005 (ip), vehicle: Klucel (hydroxypropylcellulose) (HPC).
Setting [15] is: dose: 120.0 mg/kg/injection, schedule: Q01DX005 (ip), vehicle: Klucel (hydroxypropylcellulose) (HPC).
The mark [16] stands for this setting: dose: 240.0 mg/kg/injection, schedule: Q01DX005 (ip), vehicle: Klucel (hydroxypropylcellulose) (HPC).

With `Cc1ccc([NH-])c([NH-])c1.[Cl][Pt+2][Cl]`, the T/C is, setting by setting: (dose: 1.56 mg/kg/injection, schedule: Q04DX002 (ip), vehicle: saline with Tween-80) 105 % of control and 108 % of control; (dose: 3.12 mg/kg/injection, schedule: Q04DX002 (ip), vehicle: saline with Tween-80) 110 % of control; (dose: 25.0 mg/kg/injection, schedule: Q04DX002 (ip), vehicle: saline with Tween-80) 150 % of control; (dose: 50.0 mg/kg/injection, schedule: Q04DX002 (ip), vehicle: saline with Tween-80) 159 % of control.
As for `CCOC(=O)Cn1nc([O-])[n+]2ccccc12`, the T/C was 100 % of control (dose: 100.0 mg/kg/injection, schedule: Q04DX002 (ip), vehicle: saline); 107 % of control (dose: 200.0 mg/kg/injection, schedule: Q04DX002 (ip), vehicle: saline); 98 % of control (dose: 400.0 mg/kg/injection, schedule: Q04DX002 (ip), vehicle: saline).
For the compound `Cn1nc(C(N)=O)c(=O)[nH]c1=O`, the T/C is, setting by setting: under setting [1], 104 % of control; under setting [2], 97 % of control; under setting [3], 103 % of control.
As for `CC1=C(C(=O)N2Cc3cc4ccccc4nc3C2)COC1=O`, the T/C was 99 % of control (dose: 50.0 mg/kg/injection, schedule: Q01DX001 (ip), vehicle: saline with Tween-80); 90 % of control (dose: 100.0 mg/kg/injection, schedule: Q01DX001 (ip), vehicle: saline with Tween-80); 95 % of control (dose: 200.0 mg/kg/injection, schedule: Q01DX001 (ip), vehicle: saline with Tween-80); 90 % of control (dose: 400.0 mg/kg/injection, schedule: Q01DX001 (ip), vehicle: saline with Tween-80).
On to `Cc1nnsc1-c1nc2ccccc2[nH]1`, for which the T/C was 95 % of control under setting [4], 102 % of control under setting [5] and 104 % of control under setting [6].
`COc1ccc(Nc2ncc(C)n2-c2ccc(OC)cc2)cc1`: the T/C was 98 % of control under setting [7], 98 % of control under setting [8] and 102 % of control under setting [9].
In the case of `CC(C)CC1=C(C(=O)c2ccoc2)CC(C)C1` (stereo unspecified), the T/C is, setting by setting: (dose: 3.7 mg/kg/injection, schedule: Q01DX005 (ip), vehicle: Klucel (hydroxypropylcellulose) (HPC)) 99 % of control; (dose: 7.5 mg/kg/injection, schedule: Q01DX005 (ip), vehicle: Klucel (hydroxypropylcellulose) (HPC)) 95 % of control; (dose: 15.0 mg/kg/injection, schedule: Q01DX005 (ip), vehicle: Klucel (hydroxypropylcellulose) (HPC)) 95 % of control.
On to `COc1c(Br)c2c(c([N+](=O)[O-])c1OC)C(=O)OC2`, for which the T/C is, setting by setting: under setting [10], 103 % of control; under setting [4], 96 % of control; under setting [5], 96 % of control; under setting [6], 104 % of control.
On to `CC(C)c1nnc(NC(=O)CSC(=S)N2CCOCC2)s1`, for which the T/C is 106 % of control under setting [11], 98 % of control under setting [12] and 97 % of control under setting [13].
Consider `CCN(CC)CCNc1ccc(C)c2sc3cc(O)ccc3c(=O)c12`, for which the T/C (dose: 50.0 mg/kg/injection, schedule: Q01DX005 (ip), vehicle: saline) was 107 % of control; the T/C (dose: 100.0 mg/kg/injection, schedule: Q01DX005 (ip), vehicle: saline) is 108 % of control; the T/C (dose: 200.0 mg/kg/injection, schedule: Q01DX005 (ip), vehicle: saline) is 106 % of control.
Regarding `O=C1c2ccccc2C(=O)N1CC[P+](c1ccccc1)(c1ccccc1)c1ccccc1`, the T/C is, setting by setting: (dose: 0.78 mg/kg/injection, schedule: Q01DX009 (ip), vehicle: water) 87 % of control; (dose: 1.56 mg/kg/injection, schedule: Q01DX009 (ip), vehicle: water) 112 % of control and 103 % of control and 115 % of control; (dose: 3.13 mg/kg/injection, schedule: Q01DX009 (ip), vehicle: saline with Tween-80) 121 % of control; (dose: 3.13 mg/kg/injection, schedule: Q01DX009 (ip), vehicle: water) 123 % of control and 118 % of control and 120 % of control; (dose: 6.25 mg/kg/injection, schedule: Q01DX009 (ip), vehicle: saline with Tween-80) 88 % of control; (dose: 12.5 mg/kg/injection, schedule: Q01DX009 (ip), vehicle: water) 123 % of control and 105 % of control. Also, the T/C is, setting by setting: (dose: 18.8 mg/kg/injection, schedule: Q01DX009 (ip), vehicle: water) 93 % of control; (dose: 25.0 mg/kg/injection, schedule: Q01DX009 (ip), vehicle: saline with Tween-80) 123 % of control; (dose: 25.0 mg/kg/injection, schedule: Q01DX009 (ip), vehicle: water) 98 % of control.
In the case of `CC1=CC(=C2C(=O)c3ccccc3C2=O)C=CN1CCCN1CCCCC1`, the T/C (dose: 50.0 mg/kg/injection, schedule: Q01DX009 (ip), vehicle: saline) is 103 % of control and 119 % of control; the T/C (dose: 100.0 mg/kg/injection, schedule: Q01DX009 (ip), vehicle: saline) is 101 % of control and 106 % of control; the T/C (dose: 200.0 mg/kg/injection, schedule: Q01DX009 (ip), vehicle: saline) was 106 % of control and 123 % of control; the T/C (dose: 400.0 mg/kg/injection, schedule: Q01DX009 (ip), vehicle: saline) was 100 % of control.
For `Nc1nc(N)c(CCCOc2ccc(C(=O)O)cc2)c(N)n1`, the T/C under setting [14] is 93 % of control and the T/C under setting [15] was 97 % of control.
With `c1ccc(-c2nnc3sc4ccccc4n23)cc1`, the T/C was 105 % of control under setting [14], 96 % of control under setting [15] and 94 % of control under setting [16].
On the same counts, the results for `CN(C)C(CS(=O)(=O)c1ccccc1)c1ccccc1` (stereo unspecified) are 100 % of control, 91 % of control and 91 % of control.
`Cc1noc2c1CC(=O)c1ccccc1OC2`: the T/C is, setting by setting: under setting [11], 100 % of control; under setting [12], 98 % of control; under setting [13], 94 % of control.
On the same counts, the results for `CCN(CC)C(=O)N1C=CC(c2ccccc2)C(C(C)=O)=C1` (stereo unspecified) are 91 % of control, 103 % of control and 101 % of control.
As to `N#CNC(c1ccccc1)(c1ccccc1)c1ccccc1`, the T/C by setting is: under setting [1], 98 % of control; under setting [2], 98 % of control; under setting [3], 94 % of control.
`Cc1ccc(C)c(NC(=O)CCC(=O)C(C)C(=O)c2ccccc2)c1` (stereo unspecified): the T/C is, setting by setting: under setting [11], 111 % of control; under setting [12], 102 % of control; under setting [13], 108 % of control.
In the case of `CCC1C2Cc3ccc(O)cc3C1(CC)CCN2Cc1ccoc1` (stereo unspecified), the T/C was 96 % of control under setting [7], 88 % of control under setting [8] and 91 % of control under setting [9].
For the compound `C=C1C(=O)C2CCN1CC2`, the T/C under setting [1] was 105 % of control and 110 % of control and 113 % of control; the T/C under setting [2] was 113 % of control and 116 % of control (2×); the T/C under setting [3] is 111 % of control and 116 % of control.
On to `C=C(Cl)C(=NC(C)(C)C)Nc1ccc(Cl)cc1`, for which the T/C is 114 % of control (dose: 6.25 mg/kg/injection, schedule: Q01DX005 (ip), vehicle: Klucel (hydroxypropylcellulose) (HPC)); 117 % of control (dose: 12.5 mg/kg/injection, schedule: Q01DX005 (ip), vehicle: Klucel (hydroxypropylcellulose) (HPC)); 112 % of control under setting [10]; 110 % of control under setting [4]; 115 % of control under setting [5].
In the case of `O=C(NCCCl)Nc1ccnc(=O)[nH]1`, the T/C is 107 % of control under setting [1], 107 % of control under setting [2] and 111 % of control under setting [3].
Consider `COc1ccc(OC)c(/C=C/c2ccc([N+](=O)[O-])cc2)c1`, for which the T/C was 100 % of control (dose: 50.0 mg/kg/injection, schedule: Q01DX009 (ip), vehicle: Klucel (hydroxypropylcellulose) (HPC)); 100 % of control (dose: 100.0 mg/kg/injection, schedule: Q01DX009 (ip), vehicle: Klucel (hydroxypropylcellulose) (HPC)); 86 % of control (dose: 200.0 mg/kg/injection, schedule: Q01DX009 (ip), vehicle: Klucel (hydroxypropylcellulose) (HPC)).
For the compound `CC(=O)Nc1ccc(S(=O)(=O)Nc2ccc([N+](=O)[O-])cc2)cc1`, the T/C is, setting by setting: (dose: 100.0 mg/kg/injection, schedule: Q04DX003 (ip), vehicle: saline with Tween-80) 90 % of control; (dose: 200.0 mg/kg/injection, schedule: Q04DX003 (ip), vehicle: saline with Tween-80) 86 % of control; (dose: 400.0 mg/kg/injection, schedule: Q04DX003 (ip), vehicle: saline with Tween-80) 100 % of control.

For the origin of these results see PubChem BioAssay AID330 (DTP/NCI, 2004).
